Like-named read-outs stand apart in the source and are kept apart here. Marks after values point to notes of the source that are not given here.
Key:
PfPFT = target: T1, PfPFT (Plasmodium falciparum, UniProt Q8I503+Q8IHP6); assay: PfPFT inhibition, scintillation proximity assay with partially purified PfPFT; format: biochemical; settings: for inhibition at 0.005 µM: read-out: % Inhibition of PfPFT at 5 nM, inhibitor at 5 nM; for inhibition at 0.05 µM: read-out: % Inhibition of PfPFT at 50 nM, inhibitor at 50 nM; for Selectivity: ratio of rat to Plasmodium PFT activity; for IC50: concentration decreasing transferase activity twofold
T1 sequence (Q8I503 1-521): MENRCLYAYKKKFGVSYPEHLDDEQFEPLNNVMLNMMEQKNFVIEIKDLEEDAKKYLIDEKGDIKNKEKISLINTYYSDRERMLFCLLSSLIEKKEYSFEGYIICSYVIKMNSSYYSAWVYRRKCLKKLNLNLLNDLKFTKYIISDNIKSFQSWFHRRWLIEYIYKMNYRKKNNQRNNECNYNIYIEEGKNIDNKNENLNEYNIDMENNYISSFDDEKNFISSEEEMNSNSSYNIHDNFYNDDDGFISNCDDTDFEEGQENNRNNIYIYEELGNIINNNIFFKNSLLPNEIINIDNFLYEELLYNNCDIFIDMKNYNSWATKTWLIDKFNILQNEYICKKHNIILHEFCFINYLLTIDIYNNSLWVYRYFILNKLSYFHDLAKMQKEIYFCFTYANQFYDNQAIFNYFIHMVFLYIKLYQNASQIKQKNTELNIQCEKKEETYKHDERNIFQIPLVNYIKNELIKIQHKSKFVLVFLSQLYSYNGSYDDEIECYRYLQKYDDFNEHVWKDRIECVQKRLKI
T1 sequence (Q8IHP6 1-923): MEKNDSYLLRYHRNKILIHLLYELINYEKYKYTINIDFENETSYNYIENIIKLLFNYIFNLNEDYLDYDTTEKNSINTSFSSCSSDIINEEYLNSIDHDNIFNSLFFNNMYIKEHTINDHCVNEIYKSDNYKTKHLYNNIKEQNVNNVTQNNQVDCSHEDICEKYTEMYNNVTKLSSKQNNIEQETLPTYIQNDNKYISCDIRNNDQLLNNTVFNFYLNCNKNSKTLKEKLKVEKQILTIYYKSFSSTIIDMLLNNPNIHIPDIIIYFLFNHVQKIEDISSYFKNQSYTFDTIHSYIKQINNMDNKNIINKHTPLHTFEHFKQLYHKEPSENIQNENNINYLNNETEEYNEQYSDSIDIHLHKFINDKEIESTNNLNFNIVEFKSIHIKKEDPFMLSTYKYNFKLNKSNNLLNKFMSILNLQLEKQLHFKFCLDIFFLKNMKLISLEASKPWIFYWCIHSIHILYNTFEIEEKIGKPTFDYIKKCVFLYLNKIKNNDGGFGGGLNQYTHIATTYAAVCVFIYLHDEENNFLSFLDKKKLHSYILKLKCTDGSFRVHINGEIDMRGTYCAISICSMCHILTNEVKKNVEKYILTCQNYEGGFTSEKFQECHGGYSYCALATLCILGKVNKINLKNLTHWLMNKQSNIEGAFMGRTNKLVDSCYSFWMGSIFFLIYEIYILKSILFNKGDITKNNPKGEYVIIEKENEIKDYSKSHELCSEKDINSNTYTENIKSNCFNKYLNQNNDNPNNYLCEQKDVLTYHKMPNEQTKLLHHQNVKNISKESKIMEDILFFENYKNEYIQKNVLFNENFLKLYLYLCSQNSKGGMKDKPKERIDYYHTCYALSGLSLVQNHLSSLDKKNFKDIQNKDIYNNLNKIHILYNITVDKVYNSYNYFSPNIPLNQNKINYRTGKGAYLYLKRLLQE

Rat FTase = Rat FTase (Rattus norvegicus, UniProt Q02293+Q04631); assay: Rat farnesyltransferase IC50 determination; format: biochemical; settings: concentration decreasing transferase activity twofold
P. falciparum 3D7 = assay: P. falciparum ED50 determination, [3H]-hypoxanthine incorporation, strain 3D7; format: cell-based, Plasmodium falciparum; settings: concentration decreasing hypoxanthine incorporation into parasites twofold, read-out: ED50 3D7
Excerpt: (§1) Plasmodium strains. The P. falciparum strains used in this study were 3D7 (Netherlands, sensitive) provided by Dr. Pradipsinh Rathod from the University of Washington and K1 (Thailand, ChQ-R, Pyr-R) obtained from the MR4Unit of the American Type Culture Collection (ATCC, Manassas, Va.).
(§2) P. falciparum culture. Strains of P. falciparum were sustained in vitro based on experimental techniques as described by Trager and Jensen.^26 Cultures were maintained in RPMI-1640 (Sigma, St. Louis, […].) with 2 mM L-glutamine, 25 mM HEPES, 33 mM NaHCO3, 20 μg/ml gentamicin sulfate and 20% (v/v) heat-inactivated human plasma type A+ (R^P-20P). Type A+ erythrocytes were obtained from lab donors, washed three times with RPMI, re-suspended in 50% RPMI, and stored at 4° C. Parasites were grown in 10 mL of a 2% hematocrit/RP-20P (v/v) in 50-mL flasks under a 5% CO2, 5% O2, and 90% N2 atmosphere.
(§3) P. falciparum ED50 determination. One […]L of PFTI dissolved in DMSO was added to each well of a 96-well plate followed by the addition of 200 μL of P. falciparum culture at parasitemia and hematocrit of 0.5%. Plates were flushed with 5% CO2, 5% O2, and 90% N2 then incubated at 37° C. for 48 hr. [8-^3H]-hypoxanthine (0.3 μCi, 20 Ci/mmol, American Radiolabeled Chemicals) in 30 μL RP-20P was added to cultures and incubated for an additional 24 hours. Cells were harvested onto filter mats by a Multiharvester (Skatron, Sunnyvale, Calif.) and the radioactivity incorporated into the parasites was counted on a β-scintillation counter. The background level detected with uninfected erythrocytes was subtracted from the data. The ^3H-incorporation into infected RBCs with 1 μL DMSO vehicle alone represents 100% malaria growth. ED50 values were determined by linear regression analysis of the plots of ^3H-hypoxanthine incorporation versus concentration of compound.

P. falciparum K1 = assay: P. falciparum ED50 determination, [3H]-hypoxanthine incorporation, strain K1; format: cell-based, Plasmodium falciparum; settings: concentration decreasing hypoxanthine incorporation into parasites twofold, read-out: ED50 K1
Excerpt: as §1, §2, §3

[1] = Oral availability in mice, inhibitor concentration in plasma; format: in vivo
[2] = Oral availability in rats, inhibitor concentration in plasma; format: in vivo; settings: rat
[3] = Liver microsome metabolism (rat); settings: female, microsomes
Experimental: (§4) Microsome metabolism. Liver microsome metabolism assays were performed with female pooled microsomes from BD Biosciences (20 mg/mL). Reaction wells containing: phosphate buffer (232 μL, 0.6 M), MgCl2 (12.0 μL, 0.1 M), EDTA (0.8 μL, 0.5 M), 10x NADPH regenerating system (40.0 μL), Glucoide-6-phosphate deghydrogenase (0.8 μL, 500 U/mL), milliq water (267.8 μL), and liver microsomes (10.0 μL, 20 mg/mL) were heated at 37° C. for 10 mins. To each reaction well was added inhibitor (200 μM, 2.0 μL) in DMSO. Reaction vessels were quenched with acetonitrile (75 μL) and internal standard at designated time points, and the sample immediately frozen (−20° C.). Metabolites and unreacted inhibitor were quantified by mass spectral analysis.

[4] = Liver microsome metabolism (mouse); settings: female
Experimental: as §4

Caco-2 cells = assay: Caco-2 apparent permeability; settings: apparent permeability coefficient
Excerpt: Absorption. Caco-2 cells cultured on a semi-permeable membrane form a highly functionalized epithelial barrier, with remarkable similarity to small intestinal epithelial cells, including high levels of brush border hydrolases and well developed junctional complexes.

[5] = Plasmodium falciparum, 3D7, strain 3D7
[6] = Plasmodium falciparum, K1, strain K1

Structure (SMILES) | inhibition at 0.005 µM (PfPFT) [%] | inhibition at 0.05 µM (PfPFT) [%] | IC50 (Rat FTase) [µM] | EC50 (P. falciparum 3D7; [5]) [µM] | EC50 (P. falciparum K1; [6]) [µM] | Selectivity (PfPFT) | IC50 (PfPFT) [µM] | Tmax ([1]; mouse, in vivo, po) [min] | also measured
Cn1cnc(S(=O)(=O)N(CCN(Cc2cncn2C)c2ccc(C#N)cc2)Cc2ccccc2)c1 [Compound 8d, 1-Methyl-1H-imidazole-4-sulfonic acid benzyl-{2-[(4-cyano-phenyl)-(3-methyl-3H-imidazol-4-ylmethyl)-amino]-ethyl}-amide] | 86 | 98 | 0.025 | 0.349 | 0.375 | – | – | – | EC50 (P. falciparum K1; strain K1): 0.367 µM; Oral Availability in Mice AUC ([1]; mouse, in vivo, po, 1 mg): 112.0 µM·min; Oral Availability in Mice t1/2 ([1]; oral gavage, mice 1 mg, elimination half life): 95.9 min; half-life ([2]; plasma, 12.5 mg, oral gavage, rats, elimination half life, read-out: Oral Availability t1/2 (rats)): 96 min; Tmax ([2]; plasma, oral administration to rats 12.5 mg): 30 min; Cmax ([2]; plasma, oral gavage, rats 12.5 mg in 90% saline, 3% ethanol, 7% tween): 0.74 µM; half-life at 0.71 µM [3]: 18 min; half-life at 0.71 µM ([4]; microsomes): 9 min
Cn1cnc(S(=O)(=O)N(CCN(Cc2cncn2C)c2ccc(C#N)cc2)CC2CCCCC2)c1 [Compound 8q, 1-Methyl-1H-imidazole-4-sulfonic acid {2-[(4-cyano-phenyl)-(3-methyl-3H-imidazol-4-ylmethyl)-amino]-ethyl}-cyclohexylmethyl-amide] | 63 | 93 | 0.0075 | 0.22 | 0.85 | 1.7 | – | – | CaCo (Caco-2 cells): 1.5 cm · s^−1 × 10^−6; half-life at 0.71 µM [3]: 4 min; half-life at 0.71 µM ([4]; microsomes): < 5 min
Cn1cnc(S(=O)(=O)N(CCN(Cc2cncn2C)c2ccc(C#N)cc2)Cc2ccccn2)c1 [Compound 8aa, 1-Methyl-1H-imidazole-4-sulfonic acid {2-[(4-cyano-phenyl)-(3-methyl-3H-imidazol-4-ylmethyl)-amino]-ethyl}-pyridin-2-ylmethyl-amide amide] | 64 | 93 | 0.043 | 0.75 | 1 | – | – | – | –
Cn1cncc1CN(CCN(Cc1ccccc1)S(=O)(=O)c1ccccn1)c1ccc(C#N)cc1 [Compound 8g, Pyridine-2-sulfonic acid benzyl-{2-[(4-cyano-phenyl)-(3-methyl-3H-imidazol-4-ylmethyl)-amino]-ethyl}-amide] | 64 | 95 | – | 0.57 | 2.3 | – | 0.0028 | 30 | –
Cn1cnc(S(=O)(=O)N(CCN(Cc2cncn2C)c2ccc(C#N)cc2)Cc2ccc(-c3ccccc3)cc2)c1 [Compound 8ag, 1-Methyl-1H-imidazole-4-sulfonic acid biphenyl-4-ylmethyl-{2-[(4-cyano-phenyl)-(3-methyl-3H-imidazol-4-ylmethyl)-amino]-ethyl}-amide] | 10 | 19 | 0.88 | 0.7 | 2.5 | 3.7 | – | – | half-life at 0.71 µM ([4]; liver microsomes, Microsome t1/2, Mouse, mouse liver microsomes): < 4 min
Cn1cnc(S(=O)(=O)N(CCN(Cc2cncn2C)c2ccc(C#N)cc2)CC2CCN(C(=O)OC(C)(C)C)CC2)c1 [Compound 8v, 4-{[{2-[(4-Cyano-phenyl)-(3-methyl-3H-imidazol-4-ylmethyl)-amino]-ethyl}-(1-methyl-1H-imidazole-4-sulfonyl)-amino]-methyl}-piperidine-1-carboxylic acid tert-butyl ester] | 81 | 96 | – | 0.088 | 0.054 | – | 0.0012 | ≤ 40 | –
Cn1cnc(S(=O)(=O)N(CCN(Cc2cncn2C)c2ccc(C#N)cc2)Cc2ccc(C#N)cc2)c1 [Compound 8ae, 1-Methyl-1H-imidazole-4-sulfonic acid (4-cyano-benzyl)-{2-[(4-cyano-phenyl)-(3-methyl-3H-imidazol-4-ylmethyl)-amino]-ethyl}-amide] | 24 | 48 | 0.35 | 1.6 | 4.1 | 3.7 | – | – | –
Cn1cnc(S(=O)(=O)N(CCN(Cc2cncn2C)c2ccc(C#N)cc2)CC(=O)NC(C)(C)C)c1 [Compound 8o, N-tert-Butyl-2-[{2-[(4-cyano-phenyl)-(3-methyl-3H-imidazol-4-ylmethyl)-amino]-ethyl}-(1-methyl-1H-imidazole-4-sulfonyl)-amino]-acetamide] | 4 | 6 | > 1 | 2.8 | > 5 | – | > 1 | – | –
Cc1ccccc1CN(CCN(Cc1cncn1C)c1ccc(C#N)cc1)S(=O)(=O)c1cn(C)cn1 [Compound 8x, 1-Methyl-1H-imidazole-4-sulfonic acid {2-[(4-cyano-phenyl)-(3-methyl-3H-imidazol-4-ylmethyl)-amino]-ethyl}-(2-methyl-benzyl)-amide] | 95 | 99 | 0.0155 | 0.093 | 0.15 | – | – | 40 | Cmax ([1]; mouse, in vivo, po, 1 mg): 1.05 µM; Oral Availability AUC (^d, rats) ([2]; in vivo, po): 103^d μM · min
Cc1ccccc1CN(CCN(Cc1cncn1C)c1ccc(-c2ccccc2)cc1)S(=O)(=O)c1cn(C)cn1 [Compound 8c, 1-Methyl-1H-imidazole-4-sulfonic acid {2-[biphenyl-4-yl-(3-methyl-3H-imidazol-4-ylmethyl)-amino]-ethyl}-(2-methyl-benzyl)-amide] | 49 | 85 | > 1 | 2.5 | 2.6 | – | 0.008 | – | EC50 (P. falciparum 3D7; strain 3D7): 2.6 µM; EC50 (P. falciparum K1; strain K1): 2.5 µM
